Test results published in US4347242A, “Hypocalcaemic peptides and process for their manufacture” (Ciba-Geigy Corporation, priority 1978, dated 1982).
Where “and” joins values, the source holds several entries; their conditions need not be identical. Equal entries are not always repeated.

What was measured:
[1] = test system: rat; assay: rat hypocalcaemic activity test described by Kumar et al, J. Endocrinology 33, page 470 [1965] (MRC units); format: in vivo; conditions: per mg of peptide or product
[2] = test system: patients with increased bone turn over; assay: lowering of blood calcium level in patients with increased bone turn over; format: in vivo, human; conditions: intravenous, intramuscular or subcutaneous injection of 0.01 to 5 mg, e.g. in 0.1 molar acetate buffer pH 4.6
[3] = test system: rats; assay: lowering of plasma calcium and plasma phosphate level in tests on rats weighing 50 to 150 g; format: in vivo, rat

CC[C@H](C)[C@H](NC(=O)[C@H](C)NC(=O)[C@@H](NC(=O)[C@H](CCC(N)=O)NC(=O)[C@@H]1CCCN1C(=O)[C@H](Cc1ccccc1)NC(=O)[C@@H](NC(=O)[C@H](Cc1c[nH]cn1)NC(=O)[C@H](Cc1ccccc1)NC(=O)[C@H](CCCCN)NC(=O)[C@H](CC(N)=O)NC(=O)[C@H](Cc1ccccc1)NC(=O)[C@H](CC(=O)O)NC(=O)[C@H](CCC(N)=O)NC(=O)[C@@H](NC(=O)[C@H](Cc1ccc(O)cc1)NC(=O)[C@@H](NC(=O)CNC(=O)[C@H](CC(C)C)NC(=O)[C@H](CCSC)NC(=O)[C@@H]1CSSC[C@H](N)C(=O)NCC(=O)N[C@@H](CC(N)=O)C(=O)N[C@@H](CC(C)C)C(=O)N[C@@H](CO)C(=O)N[C@@H]([C@@H](C)O)C(=O)N1)[C@@H](C)O)[C@@H](C)O)[C@@H](C)O)[C@@H](C)O)C(=O)NCC(=O)N[C@H](C(=O)NCC(=O)N[C@@H](C)C(=O)N1CCC[C@H]1C(N)=O)C(C)C [HT-C2]
activity in the rat [1]: 100 to 200 MRC units per mg and 100-200 MRC units per mg

Human calcitonin
calcium level of the blood [2]: lowers the calcium level of the blood | plasma calcium level [3]: lowers | plasma phosphate level [3]: lowers
